Measurements as given in ChEMBL document CHEMBL4184197 (Bioorg Med Chem, 2018).

Tests used:
[1] = system: Salmonella typhimurium; experiment: Mutagenicity in Salmonella typhimurium TA100 in presence of rat liver S9 fraction by Ames test; format: toxicity, organism-based; settings: salmonella enterica subsp. enterica serovar typhimurium
[2] = system: Salmonella typhimurium; experiment: Mutagenicity in Salmonella typhimurium TA100 in absence of rat liver S9 fraction by Ames test; format: toxicity, organism-based; settings: salmonella enterica subsp. enterica serovar typhimurium
[3] = system: Salmonella typhimurium; experiment: Mutagenicity in Salmonella typhimurium TA1535 in presence of rat liver S9 fraction by Ames test; format: toxicity, organism-based; settings: salmonella enterica subsp. enterica serovar typhimurium
[4] = target: Adenosine receptor A2a (Homo sapiens) (UniProt P29274); experiment: Binding affinity to recombinant human A2A receptor at 10 uM after 120 mins by scintillation counting analysis relative to control
[5] = target: Adrenergic receptor alpha-2 (Homo sapiens) (UniProt P08913+P18825+P18089); experiment: Binding affinity to alpha2 receptor (unknown origin) at 10 uM relative to control; format: protein assay
[6] = target: Beta-1 adrenergic receptor (Homo sapiens) (UniProt P08588); experiment: Binding affinity to recombinant human beta1 receptor at 10 uM after 60 mins by scintillation counting analysis relative to control
Sequence of Beta-1 adrenergic receptor (Homo sapiens) (P08588 whole entry, looked up): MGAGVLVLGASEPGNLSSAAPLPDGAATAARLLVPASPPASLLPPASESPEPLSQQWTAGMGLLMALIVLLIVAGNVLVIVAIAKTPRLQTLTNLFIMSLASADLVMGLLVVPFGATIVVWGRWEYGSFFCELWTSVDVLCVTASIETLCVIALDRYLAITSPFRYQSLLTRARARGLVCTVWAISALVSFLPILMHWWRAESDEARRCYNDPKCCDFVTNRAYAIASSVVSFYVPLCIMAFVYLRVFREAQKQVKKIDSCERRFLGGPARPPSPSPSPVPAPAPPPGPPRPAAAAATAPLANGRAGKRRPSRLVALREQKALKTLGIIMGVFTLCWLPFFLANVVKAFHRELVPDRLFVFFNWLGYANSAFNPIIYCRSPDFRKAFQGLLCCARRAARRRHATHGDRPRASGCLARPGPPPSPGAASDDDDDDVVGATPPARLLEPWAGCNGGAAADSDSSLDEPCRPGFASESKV

[7] = target: Type-1 angiotensin II receptor (Homo sapiens) (UniProt P30556); experiment: Binding affinity to recombinant human AT1 receptor at 10 uM after 120 mins by scintillation counting analysis relative to control
[8] = organism: Homo sapiens; experiment: Binding affinity to central-type benzodiazepine receptor (unknown origin) at 10 uM relative to control
[9] = target: Calcitonin gene-related peptide type 1 receptor (Homo sapiens) (UniProt Q16602); experiment: Binding affinity to recombinant human CGRP at 10 uM after 90 mins by scintillation counting analysis relative to control
Sequence of Calcitonin gene-related peptide type 1 receptor (Homo sapiens) (Q16602 whole entry): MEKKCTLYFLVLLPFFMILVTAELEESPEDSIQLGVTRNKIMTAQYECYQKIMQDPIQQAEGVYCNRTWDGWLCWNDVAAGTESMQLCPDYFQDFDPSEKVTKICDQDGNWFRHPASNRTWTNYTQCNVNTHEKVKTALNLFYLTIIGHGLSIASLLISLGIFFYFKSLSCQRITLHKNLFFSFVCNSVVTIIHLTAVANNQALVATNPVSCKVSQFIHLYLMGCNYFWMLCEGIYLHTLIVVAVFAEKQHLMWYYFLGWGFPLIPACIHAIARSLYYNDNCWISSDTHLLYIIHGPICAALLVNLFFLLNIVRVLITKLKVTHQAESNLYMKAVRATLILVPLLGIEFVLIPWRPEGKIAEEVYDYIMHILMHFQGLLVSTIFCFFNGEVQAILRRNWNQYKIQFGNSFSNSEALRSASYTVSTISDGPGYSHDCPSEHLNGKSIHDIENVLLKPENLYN

[10] = target: Cannabinoid receptor 1 (Homo sapiens) (UniProt P21554); experiment: Binding affinity to recombinant human CB1 at 10 uM after 120 mins by scintillation counting analysis relative to control
[11] = target: Gastrin/cholecystokinin type B receptor (Homo sapiens) (UniProt P32239); experiment: Binding affinity to recombinant human CCK2 at 10 uM after 60 mins by scintillation counting analysis relative to control
Sequence of Gastrin/cholecystokinin type B receptor (Homo sapiens) (P32239 whole entry): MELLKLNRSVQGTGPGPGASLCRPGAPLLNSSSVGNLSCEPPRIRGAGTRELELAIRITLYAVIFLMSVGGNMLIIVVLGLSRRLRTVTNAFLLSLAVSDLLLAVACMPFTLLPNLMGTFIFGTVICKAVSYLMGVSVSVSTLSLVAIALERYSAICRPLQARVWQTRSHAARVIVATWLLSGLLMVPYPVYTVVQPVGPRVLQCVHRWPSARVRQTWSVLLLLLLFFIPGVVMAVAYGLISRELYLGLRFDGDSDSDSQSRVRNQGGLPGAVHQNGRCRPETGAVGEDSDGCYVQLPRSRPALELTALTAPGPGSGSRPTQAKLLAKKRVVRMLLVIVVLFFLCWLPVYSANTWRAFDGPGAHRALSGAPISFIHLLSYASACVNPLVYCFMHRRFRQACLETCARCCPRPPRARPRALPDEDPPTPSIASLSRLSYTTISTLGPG

[12] = organism: Homo sapiens; experiment: Binding affinity to recombinant human dopamine receptor D4.4 at 10 uM after 60 mins by scintillation counting analysis relative to control
[13] = target: D(1B) dopamine receptor (Homo sapiens) (UniProt P21918); experiment: Binding affinity to recombinant human dopamine receptor D5 at 10 uM after 60 mins by scintillation counting analysis relative to control
[14] = target: Endothelin receptor type B (Homo sapiens) (UniProt P24530); experiment: Binding affinity to recombinant human ETB receptor at 10 uM after 120 mins by scintillation counting analysis relative to control
[15] = target: C-C chemokine receptor type 1 (Homo sapiens) (UniProt P32246); experiment: Binding affinity to recombinant human CCR1 receptor at 10 uM after 120 mins by scintillation counting analysis relative to control
Sequence of C-C chemokine receptor type 1 (Homo sapiens) (P32246 whole entry): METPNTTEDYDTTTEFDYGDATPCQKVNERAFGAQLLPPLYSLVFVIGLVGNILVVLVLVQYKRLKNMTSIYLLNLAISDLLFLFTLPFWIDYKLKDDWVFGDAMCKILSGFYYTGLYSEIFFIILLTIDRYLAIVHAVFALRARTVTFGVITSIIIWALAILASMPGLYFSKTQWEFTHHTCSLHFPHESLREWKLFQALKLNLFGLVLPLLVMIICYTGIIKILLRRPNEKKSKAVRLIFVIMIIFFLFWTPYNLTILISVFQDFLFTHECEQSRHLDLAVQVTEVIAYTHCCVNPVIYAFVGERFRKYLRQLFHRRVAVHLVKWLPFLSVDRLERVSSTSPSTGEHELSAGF

[16] = target: Muscarinic acetylcholine receptor M1 (Homo sapiens) (UniProt P11229); experiment: Binding affinity to recombinant human muscarinic M1 receptor at 10 uM after 60 mins by scintillation counting analysis relative to control
[17] = target: Substance-P receptor (Homo sapiens) (UniProt P25103); experiment: Binding affinity to human NK1 receptor at 10 uM after 30 mins by scintillation counting analysis relative to control
[18] = target: Neuropeptide Y receptor type 1 (Homo sapiens) (UniProt P25929); experiment: Binding affinity to human Y1 receptor at 10 uM after 120 mins by scintillation counting analysis relative to control
[19] = target: Kappa-type opioid receptor (Homo sapiens) (UniProt P41145); experiment: Binding affinity to human kappa opioid receptor at 10 uM after 60 mins by scintillation counting analysis relative to control
Sequence of Kappa-type opioid receptor (Homo sapiens) (P41145 whole entry): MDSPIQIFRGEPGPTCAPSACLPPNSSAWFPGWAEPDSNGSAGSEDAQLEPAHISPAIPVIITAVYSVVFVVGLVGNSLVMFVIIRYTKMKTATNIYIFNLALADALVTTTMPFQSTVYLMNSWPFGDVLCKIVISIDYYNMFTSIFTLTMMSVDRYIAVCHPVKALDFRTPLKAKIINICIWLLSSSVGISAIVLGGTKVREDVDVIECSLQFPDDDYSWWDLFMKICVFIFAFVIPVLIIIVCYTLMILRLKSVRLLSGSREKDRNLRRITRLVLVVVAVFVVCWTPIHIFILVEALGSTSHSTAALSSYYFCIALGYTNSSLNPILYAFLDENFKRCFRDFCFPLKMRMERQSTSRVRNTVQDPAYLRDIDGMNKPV

[20] = target: Peroxisome proliferator-activated receptor gamma (Homo sapiens) (UniProt P37231); experiment: Binding affinity to recombinant human PPARgamma receptor at 10 uM after 120 mins by scintillation counting analysis relative to control
[21] = target: 5-hydroxytryptamine receptor 1B (Homo sapiens) (UniProt P28222); experiment: Binding affinity to recombinant human full length 5-HT1B receptor at 10 uM after 90 mins by scintillation counting analysis relative to control
[22] = organism: Homo sapiens; experiment: Binding affinity to human sigma receptor at 10 uM after 120 mins by scintillation counting analysis relative to control
[23] = target: Vasoactive intestinal polypeptide receptor 1 (Homo sapiens) (UniProt P32241); experiment: Binding affinity to recombinant human VPAC1 receptor at 10 uM after 60 mins by scintillation counting analysis relative to control
[24] = organism: Rattus norvegicus; experiment: Binding affinity to rat SKCa channel at 10 uM after 60 mins by scintillation counting analysis relative to control
[25] = target: Sodium-dependent dopamine transporter (Homo sapiens) (UniProt Q01959); experiment: Binding affinity to dopamine transporter (unknown origin) at 10 uM relative to control
[26] = target: cGMP-dependent 3',5'-cyclic phosphodiesterase (Homo sapiens) (UniProt O00408); experiment: Binding affinity to recombinant human PDE2A1 at 10 uM after 20 mins by scintillation counting analysis relative to control
Sequence of cGMP-dependent 3',5'-cyclic phosphodiesterase (Homo sapiens) (O00408 whole entry): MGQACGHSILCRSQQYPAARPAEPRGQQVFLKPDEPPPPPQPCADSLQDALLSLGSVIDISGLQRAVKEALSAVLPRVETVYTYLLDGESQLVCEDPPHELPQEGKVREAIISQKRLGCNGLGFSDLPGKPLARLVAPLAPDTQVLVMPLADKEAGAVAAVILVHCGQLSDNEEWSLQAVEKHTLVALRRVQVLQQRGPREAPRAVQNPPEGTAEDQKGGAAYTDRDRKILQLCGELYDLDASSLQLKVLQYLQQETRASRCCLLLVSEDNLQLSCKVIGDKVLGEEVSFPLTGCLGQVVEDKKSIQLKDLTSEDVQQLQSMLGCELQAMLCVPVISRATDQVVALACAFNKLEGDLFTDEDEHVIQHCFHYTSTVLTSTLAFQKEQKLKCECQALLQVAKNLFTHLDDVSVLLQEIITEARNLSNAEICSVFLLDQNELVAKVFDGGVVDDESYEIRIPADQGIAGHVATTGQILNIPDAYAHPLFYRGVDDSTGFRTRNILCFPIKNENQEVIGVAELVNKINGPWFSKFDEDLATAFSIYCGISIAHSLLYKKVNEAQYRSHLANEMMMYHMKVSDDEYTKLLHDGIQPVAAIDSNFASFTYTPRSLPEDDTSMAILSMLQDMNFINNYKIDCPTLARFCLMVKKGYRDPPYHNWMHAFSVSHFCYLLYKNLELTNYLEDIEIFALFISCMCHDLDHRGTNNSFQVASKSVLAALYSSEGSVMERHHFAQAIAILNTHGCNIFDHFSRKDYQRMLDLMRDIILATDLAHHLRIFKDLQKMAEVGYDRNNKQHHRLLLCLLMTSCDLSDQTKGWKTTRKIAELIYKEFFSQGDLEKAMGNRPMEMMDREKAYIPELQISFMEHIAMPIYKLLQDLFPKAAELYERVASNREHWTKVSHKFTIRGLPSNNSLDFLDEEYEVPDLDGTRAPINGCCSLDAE

[27] = target: cGMP-inhibited 3',5'-cyclic phosphodiesterase 3A (Homo sapiens) (UniProt Q14432); experiment: Binding affinity to recombinant human PDE3A at 10 uM after 20 mins by scintillation counting analysis relative to control
[28] = target: Stromelysin-1 (Homo sapiens) (UniProt P08254); experiment: Binding affinity to human MMP3 at 10 uM after 30 mins by fluorescence assay relative to control
[29] = target: Tryptase (Homo sapiens) (UniProt Q9BZJ3+Q15661+Q9NRR2); experiment: Binding affinity to human tryptase at 10 uM after 8 mins by spectrophotometric analysis relative to control; format: protein assay
[30] = target: Disintegrin and metalloproteinase domain-containing protein 17 (Homo sapiens) (UniProt P78536); experiment: Binding affinity to recombinant human TACE at 10 uM after 5 mins by fluorescence assay relative to control
[31] = target: Acetylcholinesterase (Homo sapiens) (UniProt P22303); experiment: Binding affinity to recombinant human acetylcholinesterase at 10 uM after 30 mins by spectrophotometric analysis relative to control
Sequence of Acetylcholinesterase (Homo sapiens) (P22303 whole entry): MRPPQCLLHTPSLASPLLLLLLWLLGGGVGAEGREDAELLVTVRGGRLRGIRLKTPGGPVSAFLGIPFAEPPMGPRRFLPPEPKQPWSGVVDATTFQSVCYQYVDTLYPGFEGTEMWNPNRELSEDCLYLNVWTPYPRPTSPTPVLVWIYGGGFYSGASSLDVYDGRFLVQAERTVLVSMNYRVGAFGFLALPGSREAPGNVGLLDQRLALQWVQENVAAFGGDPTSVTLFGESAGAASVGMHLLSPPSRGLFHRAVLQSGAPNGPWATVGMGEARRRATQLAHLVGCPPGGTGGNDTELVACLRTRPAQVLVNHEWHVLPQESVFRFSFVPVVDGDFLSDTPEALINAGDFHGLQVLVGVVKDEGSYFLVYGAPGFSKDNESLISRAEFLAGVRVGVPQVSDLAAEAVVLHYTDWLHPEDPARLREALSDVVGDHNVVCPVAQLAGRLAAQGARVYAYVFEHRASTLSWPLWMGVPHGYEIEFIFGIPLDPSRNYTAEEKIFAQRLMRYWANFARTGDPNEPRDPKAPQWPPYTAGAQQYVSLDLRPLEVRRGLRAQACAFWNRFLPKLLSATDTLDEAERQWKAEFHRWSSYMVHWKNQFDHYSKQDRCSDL

[32] = target: Kinesin-like protein KIF11 (Homo sapiens) (UniProt P52732); experiment: Binding affinity to recombinant human EG5 at 10 uM after 10 mins by spectrophotometric analysis relative to control
[33] = target: Histone deacetylase 4 (Homo sapiens) (UniProt P56524); experiment: Binding affinity to recombinant human HDAC4 at 10 uM after 30 mins by fluorescence analysis relative to control
Sequence of Histone deacetylase 4 (Homo sapiens) (P56524 whole entry): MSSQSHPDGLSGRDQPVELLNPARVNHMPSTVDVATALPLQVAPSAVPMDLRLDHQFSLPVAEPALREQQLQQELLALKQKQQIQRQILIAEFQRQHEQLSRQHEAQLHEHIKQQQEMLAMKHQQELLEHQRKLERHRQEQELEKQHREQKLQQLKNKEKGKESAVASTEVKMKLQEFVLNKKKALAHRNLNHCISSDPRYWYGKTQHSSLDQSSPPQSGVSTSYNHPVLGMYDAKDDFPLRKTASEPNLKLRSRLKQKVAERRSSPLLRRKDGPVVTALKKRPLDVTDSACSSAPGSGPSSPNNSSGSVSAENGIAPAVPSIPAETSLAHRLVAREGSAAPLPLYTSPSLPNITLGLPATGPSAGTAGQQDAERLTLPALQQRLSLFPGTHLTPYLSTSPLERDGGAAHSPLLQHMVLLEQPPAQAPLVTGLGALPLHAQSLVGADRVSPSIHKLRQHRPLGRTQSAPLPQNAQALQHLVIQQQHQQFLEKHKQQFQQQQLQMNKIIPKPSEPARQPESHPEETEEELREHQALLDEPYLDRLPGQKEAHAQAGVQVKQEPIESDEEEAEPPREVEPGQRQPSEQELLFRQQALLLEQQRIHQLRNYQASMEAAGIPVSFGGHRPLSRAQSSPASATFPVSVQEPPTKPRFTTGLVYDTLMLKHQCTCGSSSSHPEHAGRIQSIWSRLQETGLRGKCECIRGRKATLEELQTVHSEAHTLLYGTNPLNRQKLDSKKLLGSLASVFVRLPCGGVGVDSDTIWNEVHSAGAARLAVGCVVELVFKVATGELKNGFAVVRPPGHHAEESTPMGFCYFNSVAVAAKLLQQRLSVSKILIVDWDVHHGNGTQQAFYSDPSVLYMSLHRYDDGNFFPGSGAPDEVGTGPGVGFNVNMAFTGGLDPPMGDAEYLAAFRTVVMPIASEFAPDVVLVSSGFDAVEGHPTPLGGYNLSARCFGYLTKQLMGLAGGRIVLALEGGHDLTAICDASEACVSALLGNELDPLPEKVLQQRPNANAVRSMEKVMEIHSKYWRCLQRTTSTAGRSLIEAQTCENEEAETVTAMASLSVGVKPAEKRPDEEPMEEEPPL

[34] = target: 3-hydroxy-3-methylglutaryl-coenzyme A reductase (Homo sapiens) (UniProt P04035); experiment: Binding affinity to HMG-CoA reductase (unknown origin) at 10 uM by relative to control
[35] = target: Prostaglandin G/H synthase 1 (Homo sapiens) (UniProt P23219); experiment: Binding affinity to recombinant human COX1 at 10 uM after 3 mins by fluorescence assay relative to control
[36] = target: Prostaglandin G/H synthase 2 (Homo sapiens) (UniProt P35354); experiment: Binding affinity to recombinant human COX2 at 10 uM after 5 mins by fluorescence assay relative to control

Q: `CCOc1c(Cl)cc(C(=O)Nc2ccc(C(=O)O)c(C)c2)cc1OC(C)C` was tested. Which Activity [1] did it give?
A: Non-Toxic

Q: What about the Activity [2] of the same compound?
A: Non-Toxic

Q: What about the Activity [3] of the same compound?
A: Non-Toxic

Q: And the Activity [4]?
A: < 25%

Q: And the Activity [5]?
A: < 25%

Q: What about the Activity [6] of the same compound?
A: < 25%

Q: And the Activity [7]?
A: < 25%

Q: And the Activity [8]?
A: < 25%

Q: And the Activity [9]?
A: < 25%

Q: And the Activity [10]?
A: < 25%

Q: And the Activity [11]?
A: < 25%

Q: What about the Activity [12] of the same compound?
A: < 25%

Q: And the Activity [13]?
A: < 25%

Q: What about the Activity [14] of the same compound?
A: < 25%

Q: What about the Activity [15] of the same compound?
A: < 25%

Q: What about the Activity [16] of the same compound?
A: < 25%

Q: And the Activity [17]?
A: < 25%

Q: And the Activity [18]?
A: < 25%

Q: What about the Activity [19] of the same compound?
A: < 25%

Q: And the Activity [20]?
A: < 25%

Q: And the Activity [21]?
A: < 25%

Q: What about the Activity [22] of the same compound?
A: < 25%

Q: What about the Activity [23] of the same compound?
A: < 25%

Q: And the Activity [24]?
A: < 25%

Q: What about the Activity [25] of the same compound?
A: < 25%

Q: What about the Activity [26] of the same compound?
A: < 25%

Q: And the Activity [27]?
A: < 25%

Q: What about the Activity [28] of the same compound?
A: < 25%

Q: And the Activity [29]?
A: < 25%

Q: What about the Activity [30] of the same compound?
A: < 25%

Q: What about the Activity [31] of the same compound?
A: < 25%

Q: And the Activity [32]?
A: < 25%

Q: And the Activity [33]?
A: < 25%

Q: And the Activity [34]?
A: < 25%

Q: And the Activity [35]?
A: < 25%

Q: And the Activity [36]?
A: < 25%
